Several values for one entry are separate records, joined by “and”; a condition that tells them apart may be missing. Equal values may be shown once. Read-outs that look alike come from different tables or passages of the source.

One data set deals with AH 130 tumor. The conditions noted are these: rat, in vivo. The protocol:
^3H-FT- 207(300 μ Ci/Kg) with cytosine were suspended in 5% acasia solution and administered orally to AH 130 bearing rats through a stomach tube, each of 3 rats/group. […] The rat were sacrified at various periods, the tumors were removed and used for analysis. Tumor were homogenized in a equal volume of saline, 1.0 ml of each sample was suspended in 7 volumes of cold methanol and centrifuged at 3000 rpm for 10 min. The precipitate was washed twice with 2 volumes of cold methanol and the mixture was centrifuged. The supernatant was combined with first supernatant and dried under nitrogen. […] Samples were mixed with 10 ml of scintillator containing 4 g of 2,5-diphenyloxazole, 0.4 g of 1,4-bis-[2-(4-methyl-5-phenyloxazolyl)]benzene and 100 g of naphthalene per liter of solvent composed of dioxane: toluene: ethylcellosolve=15:3:2 (v/v/v), and the radio activity was measured with Aloka LSC 673 liquid scintillation spectrometor.

The conditions of data set [1]: oral anti-cancer agent; cited from earlier work.
For data set [2] the following is noted: cited from earlier work.
A further data set has as its system sarcoma 180. Description: Anti-cancer effect on subcutaneously transplanted sarcoma 180 in mice. The class given is in vivo, mouse. The method, then: The anti-cancer compositions of this invention are tested in mice by the following methods to determine acute toxicity, anti-cancer effect and therapeutic index
Tissues of sarcoma 180, 2×10^6, are subcutaneously transplanted in the back of male mice of ICR strain (6 mice in each group). A 5-fluorouracil (a) and uracil derivative (b) in the proportions listed in Tables 1-16 are suspended in a 5% solution of gum arabic to prepare a suspension. Twenty-four hours after the transplantation and during the following seven consecutive days the suspension is orally given to the animal once every day. On the 10th day after the transplantation, the tumor is removed from the body and weighed to calculate the average weight (T) of the tumors in the group to which the composition has been given and the corresponding weight (C) in the control group to determine the ratio T/C.

Turning to `Nc1ccn([C@H]2C[C@H](O)[C@@H](CO)O2)c(=O)n1` [2'-Deoxycytidine], the “Concentration of 5-FU in cancer tissues” value in the data set on AH 130 tumor (60 min), in the data set on AH 130 tumor (120 min), in the data set on AH 130 tumor (240 min) and with AH 130 tumor (480 min) was 0.000 µg/mL in each case.

By ED50 is commonly meant the dose at which the effect has come halfway, by size or by number of responders. As to `O=c1[nH]c(=O)n(C2CCCO2)cc1F` (stereo not drawn) [Compound 5, 1-(2-Tetrahydrofuryl)-5-fluorouracil], the “efficacy compared with 5-fluorouracil” value in data set [1] is “somewhat inferior to 5-fluorouracil in efficacy”. Also, the “conversion to 5-fluorouracil in vivo” value in data set [2] is “slowly converted to 5-fluorouracil in vivo”. Further, the ED50 with sarcoma 180 ((b) = 1(2-Tetrahydrofuryl)uracil, (b)/(a) mol ratio 1) was 99 mg/kg; in the data set with sarcoma 180 ((b) = 1(2-Tetrahydrofuryl)uracil, (b)/(a) mol ratio 2) it was 38 mg/kg; in the data set with sarcoma 180 ((b) = 1(2-Tetrahydrofuryl)uracil, (b)/(a) mol ratio 10), 34 mg/kg; with sarcoma 180 ((b) = 1Acetyluracil, (b)/(a) mol ratio 1), 49 mg/kg; with sarcoma 180 ((b) = 1Acetyluracil, (b)/(a) mol ratio 2) it was 31 mg/kg; in the data set on sarcoma 180 ((b) = 1Acetyluracil, (b)/(a) mol ratio 5), 16 mg/kg. Besides, the ED50 in the data set on sarcoma 180 ((b) = 1Cyclohexylcarbamoyluracil, (b)/(a) mol ratio 0.5) is given as 113 mg/kg; with sarcoma 180 ((b) = 1Cyclohexylcarbamoyluracil, (b)/(a) mol ratio 2), 55 mg/kg; in the data set with sarcoma 180 ((b) = 1Cyclohexylcarbamoyluracil, (b)/(a) mol ratio 5), 36 mg/kg; with sarcoma 180 ((b) = 1n-Hexylcarbamoyluracil, (b)/(a) mol ratio 0.5), 112 mg/kg; with sarcoma 180 ((b) = 1n-Hexylcarbamoyluracil, (b)/(a) mol ratio 2), 52 mg/kg; in the data set with sarcoma 180 ((b) = 1n-Hexylcarbamoyluracil, (b)/(a) mol ratio 10), 43 mg/kg. Besides, the ED50 in the data set with sarcoma 180 ((b) = 2'-Deoxycytidine, (b)/(a) mol ratio 1) is 102 mg/kg; in the data set with sarcoma 180 ((b) = 2'-Deoxycytidine, (b)/(a) mol ratio 2), 69 mg/kg; in the data set with sarcoma 180 ((b) = 2'-Deoxycytidine, (b)/(a) mol ratio 20), 39 mg/kg; with sarcoma 180 ((b) = 2'-Deoxyuridine, (b)/(a) mol ratio 0.5), 82 mg/kg; in the data set on sarcoma 180 ((b) = 2'-Deoxyuridine, (b)/(a) mol ratio 2) it was 37 mg/kg; with sarcoma 180 ((b) = 2'-Deoxyuridine, (b)/(a) mol ratio 10), 28 mg/kg. The ED50 was determined as 98 mg/kg in the data set with sarcoma 180 ((b) = 3Benzoyluracil, (b)/(a) mol ratio 1); 37 mg/kg with sarcoma 180 ((b) = 3Benzoyluracil, (b)/(a) mol ratio 2); 30 mg/kg with sarcoma 180 ((b) = 3Benzoyluracil, (b)/(a) mol ratio 10); 54 mg/kg in the data set on sarcoma 180 ((b) = 5Bromo-2'-deoxyuridine, (b)/(a) mol ratio 1); 24 mg/kg in the data set with sarcoma 180 ((b) = 5Bromo-2'-deoxyuridine, (b)/(a) mol ratio 2); 17 mg/kg in the data set with sarcoma 180 ((b) = 5Bromo-2'-deoxyuridine, (b)/(a) mol ratio 10). In addition, the median effective dose (ED50) is reported as 55 mg/kg with sarcoma 180 ((b) = 5Bromouracil, (b)/(a) mol ratio 1); 26 mg/kg in the data set with sarcoma 180 ((b) = 5Bromouracil, (b)/(a) mol ratio 2); 23 mg/kg with sarcoma 180 ((b) = 5Bromouracil, (b)/(a) mol ratio 10); 32 mg/kg in the data set on sarcoma 180 ((b) = 5Iodouracil, (b)/(a) mol ratio 1); 17 mg/kg in the data set on sarcoma 180 ((b) = 5Iodouracil, (b)/(a) mol ratio 2); 12 mg/kg in the data set on sarcoma 180 ((b) = 5Iodouracil, (b)/(a) mol ratio 5). Also, the ED50 in the data set on sarcoma 180 ((b) = Cytidine, (b)/(a) mol ratio 1) came out at 98 mg/kg; in the data set on sarcoma 180 ((b) = Cytidine, (b)/(a) mol ratio 2), 70 mg/kg; in the data set on sarcoma 180 ((b) = Cytidine, (b)/(a) mol ratio 20) it was 28 mg/kg; with sarcoma 180 ((b) = Cytosine, (b)/(a) mol ratio 1) it was 108 mg/kg; with sarcoma 180 ((b) = Cytosine, (b)/(a) mol ratio 2) it was 66 mg/kg; with sarcoma 180 ((b) = Cytosine, (b)/(a) mol ratio 20) it was 27 mg/kg. In addition, the ED50 stood at 112 mg/kg in the data set on sarcoma 180 ((b) = Orotic acid, (b)/(a) mol ratio 1); 72 mg/kg with sarcoma 180 ((b) = Orotic acid, (b)/(a) mol ratio 2); 59 mg/kg in the data set on sarcoma 180 ((b) = Orotic acid, (b)/(a) mol ratio 20); 94 mg/kg in the data set with sarcoma 180 ((b) = Thymidine, (b)/(a) mol ratio 2); 42 mg/kg in the data set on sarcoma 180 ((b) = Thymidine, (b)/(a) mol ratio 5); 40 mg/kg in the data set with sarcoma 180 ((b) = Thymidine, (b)/(a) mol ratio 10). Also, the ED50 is on record as 42 mg/kg in the data set on sarcoma 180 ((b) = Thymine, (b)/(a) mol ratio 1); 28 mg/kg in the data set on sarcoma 180 ((b) = Thymine, (b)/(a) mol ratio 2); 14 mg/kg with sarcoma 180 ((b) = Thymine, (b)/(a) mol ratio 10); 129 mg/kg in the data set on sarcoma 180 ((b) = Uridine, (b)/(a) mol ratio 0.5); 55 mg/kg in the data set on sarcoma 180 ((b) = Uridine, (b)/(a) mol ratio 2); 36 mg/kg in the data set on sarcoma 180 ((b) = Uridine, (b)/(a) mol ratio 10). Moreover, in the data set with sarcoma 180 ((b)/(a) mol ratio 0 (alone), oral, 50% cancer inhibition (T/C)), the 50% effective dose (ED50) is 140 mg/kg and 134 mg/kg.

In the case of `Nc1cc[nH]c(=O)n1` [Cytosine], the “Concentration of 5-FU in cancer tissues” value with AH 130 tumor (60 min), in the data set on AH 130 tumor (120 min), in the data set with AH 130 tumor (240 min) and with AH 130 tumor (480 min) was 0.000 µg/mL each time.

For the molecule `O=c1c(F)cn(C2CCCO2)c(=O)n1C1CCCO1` (stereo not drawn) [FD-1], the “Concentration of 5-FU in cancer tissues” value with AH 130 tumor (60 min) was determined as 0.033 µg/mL; in the data set on AH 130 tumor (120 min), 0.024 µg/mL; in the data set on AH 130 tumor (240 min), 0.011 µg/mL; in the data set with AH 130 tumor (480 min) it was 0.008 µg/mL.
